# Reference: publication PMC7322046 (Heliyon, 2020)
# Experiments:
# [1] = tested on: human dipeptidyl peptidase IV (DPP4); settings: dipeptides; cited from earlier work
# Human recombinant DPP4 = Human recombinant DPP4 (Homo sapiens, UniProt P27487); assay: DPP4 inhibition assay; type: biochemical; settings: test tripeptide 10 μg/ml; 100 μM Gly-Pro-AMC, 37 °C, 30 min, pH 8.0
# Chain of Human recombinant DPP4 (P27487 whole entry): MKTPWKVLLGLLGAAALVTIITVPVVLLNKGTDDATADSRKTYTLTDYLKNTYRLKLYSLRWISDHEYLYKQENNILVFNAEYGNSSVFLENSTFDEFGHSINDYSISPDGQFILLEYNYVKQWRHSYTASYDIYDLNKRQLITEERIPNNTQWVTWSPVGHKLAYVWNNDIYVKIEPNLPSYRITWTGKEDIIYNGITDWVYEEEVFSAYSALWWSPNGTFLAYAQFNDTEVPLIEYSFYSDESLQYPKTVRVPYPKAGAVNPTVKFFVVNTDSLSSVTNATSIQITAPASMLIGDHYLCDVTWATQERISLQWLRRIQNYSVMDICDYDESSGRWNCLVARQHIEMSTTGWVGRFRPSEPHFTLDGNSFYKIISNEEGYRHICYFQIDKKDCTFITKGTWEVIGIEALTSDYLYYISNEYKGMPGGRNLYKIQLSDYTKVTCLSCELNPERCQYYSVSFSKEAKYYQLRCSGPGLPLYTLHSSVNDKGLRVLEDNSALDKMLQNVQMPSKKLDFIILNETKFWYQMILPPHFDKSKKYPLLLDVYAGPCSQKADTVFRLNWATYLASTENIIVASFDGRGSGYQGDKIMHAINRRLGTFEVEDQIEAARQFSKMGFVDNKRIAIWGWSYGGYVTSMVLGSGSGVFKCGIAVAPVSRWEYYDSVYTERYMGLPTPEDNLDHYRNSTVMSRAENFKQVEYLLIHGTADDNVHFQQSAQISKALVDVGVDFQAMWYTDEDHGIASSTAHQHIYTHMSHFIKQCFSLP
Substance,DPP4 inhibitory activity (in words) [1],inhibition ratio (Human recombinant DPP4)
Ile-Pro,high inhibitory activity,–
Val-Pro,high inhibitory activity,–
Val-Pro-Leu [VPL],–,31.0%
